Test results: paper PMC2829272 (Biochemical pharmacology, 2008)

Target: T1, CYP26A1 (Homo sapiens, UniProt O43174)
T1 sequence (O43174 1-497): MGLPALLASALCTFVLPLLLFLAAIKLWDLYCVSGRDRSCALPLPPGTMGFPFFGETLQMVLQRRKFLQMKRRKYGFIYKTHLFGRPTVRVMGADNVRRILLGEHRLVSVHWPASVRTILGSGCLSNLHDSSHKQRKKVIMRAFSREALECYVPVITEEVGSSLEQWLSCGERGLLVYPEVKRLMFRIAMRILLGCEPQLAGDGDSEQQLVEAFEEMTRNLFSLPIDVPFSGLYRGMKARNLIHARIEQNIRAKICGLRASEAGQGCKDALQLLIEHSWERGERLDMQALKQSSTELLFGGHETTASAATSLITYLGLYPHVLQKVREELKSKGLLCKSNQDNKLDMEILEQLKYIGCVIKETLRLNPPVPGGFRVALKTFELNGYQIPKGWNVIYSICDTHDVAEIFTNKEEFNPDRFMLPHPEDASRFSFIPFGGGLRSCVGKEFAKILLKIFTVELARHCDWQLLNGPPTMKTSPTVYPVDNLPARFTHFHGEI
Assay: spectral titration
Assay type: binding

## CC1=C(/C=C/C(C)=C/C=C/C(C)=C/C(=O)O)C(C)(C)CCC1 [RA, all-trans-retinoic acid]
  Kd: 529 nM
